Measured values published in patent EP0580968B1, “Vitamin D3 fluorinated analogs” (F. HOFFMANN-LA ROCHE AG, priority 1992, dated 1994).

Tested on: HL-60 tumor cell line
Assay: HL-60 Differentiation Assay (NBT reduction)
Format: cell-based
Conditions: 4 days incubation; for % Differentiated cells: NBT/TPA
Description: HL-60 Differentiation Assay:
The HL-60 tumor cell line was originally derived from a patient with promyelocytic leukemia. The cells are maintained in suspension and diluted to 200,000 cells/ml in 5 ml of suspension media. Compounds were tested at four concentrations in duplicate flasks. Control flasks were supplemented with vehicle alone at the highest concentration such as 0.1% ethanol. Flasks are incubated upright for 4 days in 5% CO2 at 37°C. On day 4, a 1 ml aliquot of cells was centrifuged, the media removed and the cells resuspended in a 0.2 ml of solution of nitroblue tetrazolium/phorbol 12 myristate 13-acetate (NBT/TPA). The cells are suspended and incubated at 37°C for 30 min. prior to transferring to ice. An aliquot is removed and a total of 200 cells is counted using a hemocytometer. Cells without pigmented granules are judged to be undifferentiated while those containing blue black formazan (indicating conversion of NBT) granules were scored as differentiated. Results are expressed as percent differentiated cells by calculating the ratio of the number of dark cells per total number of cells counted.

EC50 (Homo sapiens, 96 h, HL-60 differentiation, read-out: ED50 (the source's name)): 800 pM
SMILES: CC(CC#CC(O)(C(F)(F)F)C(F)(F)F)C1=CCC2C(=CC=C3CC(O)CC(O)C3)CCCC12C (stereo not shown) [Compound D, 1,25-dihydroxy-16-ene-23-yne-26,27-hexafluoro-19-nor-cholecalciferol]
% Differentiated cells (concentration 10^-8 (unit not given)): 89.5% | % Differentiated cells (concentration 10^-9 (unit not given)): 56.5% | % Differentiated cells (concentration 10^-10 (unit not given)): 1.5%
